Test results reported in paper PMC6017703, “Synthesis and Biological Evaluation of New Thiosemicarbazone Derivative Schiff Bases as Monoamine Oxidase Inhibitory Agents” (Molecules : A Journal of Synthetic Chemistry and Natural …, 2017).

Biological target: T1, monoamine oxidase A (MAO-A) (Homo sapiens, UniProt P21397)
T1 construct: gene MAOA; recombinant MAO-A
T1 sequence (P21397 1-527): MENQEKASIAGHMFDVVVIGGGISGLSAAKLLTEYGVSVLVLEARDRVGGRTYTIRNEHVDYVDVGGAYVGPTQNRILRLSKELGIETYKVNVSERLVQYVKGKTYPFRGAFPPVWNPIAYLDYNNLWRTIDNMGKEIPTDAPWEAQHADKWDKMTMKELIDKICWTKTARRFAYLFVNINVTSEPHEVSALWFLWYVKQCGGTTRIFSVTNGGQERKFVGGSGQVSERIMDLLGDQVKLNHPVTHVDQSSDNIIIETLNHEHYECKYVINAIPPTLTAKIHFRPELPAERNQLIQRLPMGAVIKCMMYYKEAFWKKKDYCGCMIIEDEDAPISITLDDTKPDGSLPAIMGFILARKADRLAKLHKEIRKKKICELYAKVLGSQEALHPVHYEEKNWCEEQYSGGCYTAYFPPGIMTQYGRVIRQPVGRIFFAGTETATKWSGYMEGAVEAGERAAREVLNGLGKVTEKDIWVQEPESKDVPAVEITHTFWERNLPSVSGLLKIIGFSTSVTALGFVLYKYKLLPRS
Test: fluorometric Ampliflu Red/HRP assay with tyramine; Lineweaver-Burk kinetics (IC50 also […])
Type: biochemical

Ki: 142 nM
Structure (SMILES): S=C(NN=Cc1ccc(Sc2ccc(Cl)cc2)cc1)NC1CCCCC1 [B24, N-Cyclohexyl-2-[4-[(4-chlorophenyl)thio]benzylidene]hydrazine-1-carbothioamide]
